Source: PMC12684391, “Mechanistic insights into the monotherapy and combination potential of FEN1 inhibition in cancer therapy” (Nucleic Acids Research, 2025)

Legend:
EXO1 = target: T1, EXO1 (Homo sapiens, UniProt Q9UQ84); test: Fluorescence-based nuclease activity assay, EXO1; assay type: biochemical; conditions: n = 3, SD = 223; cognate substrate
T1 construct: EXO1 (1-846); purchased Peak Proteins, Macclesfield, UK
Procedure: (§1) MSC778 was dissolved in dimethyl sulphoxide (DMSO) to give a 10 mM stock. FEN1/EXO1: compound was dispensed into black 384-shallow well microplates (Greiner #784076). The compound was dispensed as an 11-point dose response with a 3-fold serial dilution from a top concentration of 10 mM (to give a final in-assay concentration of 100 µM). GEN1/XPG: MSC778 was dispensed into black 1536-well plates (Greiner #782076). The compound was dispensed as a 20-point dose response with a 3-fold serial dilution from a top concentration of 10 mM (to give a final in-assay concentration of 100 µM). The volume of DMSO was adjusted to ensure that each well contained 1% (v/v) DMSO in the final assay. Control wells containing DMSO alone or inhibitor at sufficient concentration to cause complete inhibition of the reaction were also included. […]
(§2) 5 µl (FEN1/EXO1) or 3 µl per well (GEN1/XPG) of stop buffer (20 mM Tris pH 7.5, 300 mM EDTA) was added to all wells, then the plates were read on the CLARIOstar Plus (BMG LABTECH Ltd.) using the Fluorescein (FITC) wavelengths (Ex 483 ± 14, Em 530 ± 30, Dichroic auto/502.5) and auto focal height/gain settings.
(§3) All data analysis was carried out using Genedata Screener software. IC50 values were calculated using the SmartFit function.

XPG = target: T2, XPG (Homo sapiens, UniProt P28715); test: Fluorescence-based nuclease activity assay, XPG; assay type: biochemical; conditions: n = 10, SD = 0.86; cognate substrate
T2 construct: XPG (1-1186); Strep-tag (C); made in house; host or cells: Sf9 insect cells
Procedure: as §1, §2, §3

HAP1 USP1KO cells = test: Cell viability assay (CTG), 7 days; assay type: cell-based; conditions: two independent USP1KO lines
Procedure: Cells were seeded in 150 μl of media in 96-well plates or in 70 μl of media in 384-well plates pre-dosed with compounds (8–10 points dose response) with a D300e digital dispenser (Tecan) and incubated for 24 h at 37°C and 5% CO2. Cell proliferation at the end of the assay (7 days) was measured using CTG (Promega, G9243). CTG luminescence was normalized to vehicle treated control for each cell line, and data were fitted with a nonlinear regression curve (four parameters) to generate compound sensitivity curves and determine IC50 or EC50 (half maximal inhibitory/effective concentration) values as indicated.

T1 sequence (Q9UQ84 whole entry): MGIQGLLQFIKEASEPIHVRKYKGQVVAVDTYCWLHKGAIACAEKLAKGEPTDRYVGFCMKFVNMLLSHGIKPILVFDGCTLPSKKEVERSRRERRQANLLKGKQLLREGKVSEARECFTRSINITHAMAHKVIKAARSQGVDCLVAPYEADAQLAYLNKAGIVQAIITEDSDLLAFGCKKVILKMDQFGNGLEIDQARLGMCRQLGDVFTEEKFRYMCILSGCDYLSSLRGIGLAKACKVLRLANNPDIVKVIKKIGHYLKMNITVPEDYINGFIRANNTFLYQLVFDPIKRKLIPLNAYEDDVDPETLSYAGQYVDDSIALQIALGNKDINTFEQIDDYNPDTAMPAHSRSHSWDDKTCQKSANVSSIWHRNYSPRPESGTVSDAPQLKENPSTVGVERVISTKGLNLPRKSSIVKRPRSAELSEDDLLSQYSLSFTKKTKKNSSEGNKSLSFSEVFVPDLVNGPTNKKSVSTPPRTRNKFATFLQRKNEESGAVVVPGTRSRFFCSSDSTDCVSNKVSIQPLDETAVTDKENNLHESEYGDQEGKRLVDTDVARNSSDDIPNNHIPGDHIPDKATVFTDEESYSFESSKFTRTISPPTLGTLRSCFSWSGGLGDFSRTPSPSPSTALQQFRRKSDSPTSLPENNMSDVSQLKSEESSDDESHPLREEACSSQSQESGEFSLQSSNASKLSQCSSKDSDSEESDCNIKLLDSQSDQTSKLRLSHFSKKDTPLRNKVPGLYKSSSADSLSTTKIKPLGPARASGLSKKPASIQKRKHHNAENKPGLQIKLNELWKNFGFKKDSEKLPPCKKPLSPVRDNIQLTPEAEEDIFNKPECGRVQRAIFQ
T2 sequence (P28715 whole entry): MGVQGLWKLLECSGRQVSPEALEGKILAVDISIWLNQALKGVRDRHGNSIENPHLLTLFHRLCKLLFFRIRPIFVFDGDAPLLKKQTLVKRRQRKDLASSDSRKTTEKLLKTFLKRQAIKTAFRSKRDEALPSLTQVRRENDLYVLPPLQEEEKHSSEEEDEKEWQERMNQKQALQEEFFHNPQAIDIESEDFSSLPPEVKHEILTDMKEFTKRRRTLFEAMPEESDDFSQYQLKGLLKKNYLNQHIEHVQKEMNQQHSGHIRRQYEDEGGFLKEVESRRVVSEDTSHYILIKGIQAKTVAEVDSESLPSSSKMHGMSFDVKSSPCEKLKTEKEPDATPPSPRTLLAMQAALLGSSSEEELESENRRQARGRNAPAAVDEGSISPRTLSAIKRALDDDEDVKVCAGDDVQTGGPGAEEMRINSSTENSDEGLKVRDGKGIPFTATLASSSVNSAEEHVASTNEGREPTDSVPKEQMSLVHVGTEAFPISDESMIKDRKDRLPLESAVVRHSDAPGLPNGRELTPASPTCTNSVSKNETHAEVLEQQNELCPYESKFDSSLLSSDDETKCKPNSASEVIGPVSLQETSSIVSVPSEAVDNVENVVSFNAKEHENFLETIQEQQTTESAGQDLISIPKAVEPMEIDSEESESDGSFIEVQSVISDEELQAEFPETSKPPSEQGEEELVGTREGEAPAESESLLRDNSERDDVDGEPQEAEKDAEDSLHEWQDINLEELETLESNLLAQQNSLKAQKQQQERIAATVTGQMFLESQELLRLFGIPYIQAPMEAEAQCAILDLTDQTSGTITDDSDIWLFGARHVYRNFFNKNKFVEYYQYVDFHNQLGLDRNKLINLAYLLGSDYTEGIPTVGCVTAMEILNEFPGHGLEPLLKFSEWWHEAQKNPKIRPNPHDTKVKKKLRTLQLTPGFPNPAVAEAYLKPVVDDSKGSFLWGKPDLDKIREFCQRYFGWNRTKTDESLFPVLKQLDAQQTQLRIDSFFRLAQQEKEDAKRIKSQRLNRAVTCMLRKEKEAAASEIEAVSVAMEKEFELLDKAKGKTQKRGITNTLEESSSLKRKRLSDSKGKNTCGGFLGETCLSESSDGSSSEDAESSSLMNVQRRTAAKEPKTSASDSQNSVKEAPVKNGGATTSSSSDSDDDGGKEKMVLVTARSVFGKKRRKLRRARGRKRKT

- IC50 (EXO1): 871 nM
- IC50 (XPG): 218 nM
SMILES: C[C@H](Oc1nn2c(c(O)c1=O)C(=O)N1CCOC[C@@H]1C2)c1ccc2ccc(Cl)cc2c1 [MSC778]
- Sensitization of USP1KO cell lines compared to isogenic HAP1 WT cells (HAP1 USP1KO cells): 3 fold
